Data published in article PMC7821381, “Multi-Targeted Anticancer Activity of Imidazolate Phosphane Gold(I) Compounds by Inhibition of DHFR and TrxR in Breast Cancer Cells” (Frontiers in Chemistry, 2021).

Tests used:
SKBR3 cells = assay: MTT cell viability assay on SKBR3 cells; format: cell-based, human; details: for IC50: SKBR3, 48 h, ± S. D.; for cytotoxic activity in MTT screening: SKBR3 cells, 72 h (Figure 1S) and 48 h (Figure 2)
Source text: Human MDA-MB-231 (ER–/PR–/HER2–) and SK-BR-3 (ER–/PR–/HER2+) cells were obtained from American Type Culture Collection (Rockville, MD) and cultured in Dulbecco's Modified Essential Medium (DMEM, Gibco, Life Technologies) supplemented with 10% fetal bovine serum (FBS, Gibco, Life Technologies) and 1% penicillin–streptomycin (Gibco, Life Technologies). A17 cells were established from a spontaneous lobular carcinoma that arose in an FVB/neuT mouse (Galiè et al., [2005]), and maintained in DMEM plus 20% FBS and 1% penicillin-streptomycin. Cells were cultured at 37°C under humidified atmosphere with 5% CO2.
Stock solutions were prepared for each gold(I) compound (50 mM) using dimethyl sulfoxide (DMSO) (Sigma-Aldrich) as solvent. The effects of gold(I) compounds on SKBR3, A17 and MDA-MB231 cells viability were evaluated by seeding, respectively, 10, ^*10^3, 2.5 ^*10^3, 7, ^*10^3 cells/well in 96 wells plates in complete medium (DMEM supplemented with FBS) and compared to those of cisplatin. The day after, fresh medium containing vehicle alone (DMSO, 1 % v/v final concentration) or increasing concentrations of each compound ranging from 0.1 to 100 μM was added. Cell viability was determined using a MTT [3-(4,5-dimethylthiazol-2-yl)-2,5-diphenyl-2H-tetrazolium bromide Sigma Aldrich, St. Louis, MO] assay, which is based on the conversion of MTT to formazan crystals by mitochondrial enzymes, after 24, 48, and 72 h. The formazan deposits were dissolved in DMSO and the absorbance of each well was measured at 540 nm in Multiskan Ascent 96/384 Plate Reader. Each drug concentration was evaluated with 8 replicates and each experiment was repeated three times. At the end of the experiments a dose–response curve was plotted, and the IC50 concentrations were determined. Statistical analysis was performed using One-Way ANOVA analysis of variance followed by Dunnett's Multiple Comparison Test. Quantitative data are presented as means ± SEM. Differences were considered significant at ^*P ≤ 0.0332; ^**P ≤ 0.0021; ^***P ≤ 0.0002; ^****P ≤ 0.0001.
IC50 values were calculated for each of the cell lines tested, by fitting the concentration-effect curves data obtained in the three experiments with the sigmoid-Emax model using nonlinear regression, weighted by the reciprocal of the square of the predicted effect.

[1] = target: T1, dihydrofolate reductase (DHFR) (Homo sapiens, UniProt P00374); assay: DHFR specific enzymatic activity in lysates of treated SKBR3 cells; format: cell-based; details: 6 μM (maximum inhibition)
T1 construct: Cell lysates were collected using Cell Culture Lysis Reagent; endogenous in cells; host or cells: MDA-MB231 and SKBR3 (human breast cancer cells)
T1 sequence (P00374 1-187): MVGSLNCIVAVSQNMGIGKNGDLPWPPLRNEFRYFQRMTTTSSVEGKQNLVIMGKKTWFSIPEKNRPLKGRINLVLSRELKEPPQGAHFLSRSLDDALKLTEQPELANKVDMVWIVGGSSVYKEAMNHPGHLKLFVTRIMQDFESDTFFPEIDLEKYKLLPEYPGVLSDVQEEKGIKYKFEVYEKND
Experimental: SKBR3, MDA-MB-231 and A17 cells were plated onto 100 mm cell culture dishes (2 × 10^6 cells/ dish). The day after, cells were treated with vehicle alone (DMSO) as control or increasing concentrations of compound 5 and compound 6 in DMEM supplemented with 2% FBS (Invitrogen, Carlsbad, CA) for 4 h or 12 h. Representative pictures of cells treated with compound 5 or 6 at the indicated concentration for 4 or 12 h just before to take cell lysates for the enzymatic tests are reported as supplemental files. Cell lysates were collected using Cell Culture Lysis Reagent (Promega, Madison, WI) supplemented with BSA (1%) and protease inhibitors. DHFR activity was assessed by spectrophotometric assay as reported elsewhere (Wang et al., [2020]) in which the reaction rate was followed by recording the decreasing absorbance at 340 nm due to oxidation of NADPH to NADP^+, using a Shimadzu UV-2450 spectrophotometer. When necessary, because of low protein content in the lysates, the DHFR enzymatic activity was measured by a discontinuous direct HPLC assay using an Agilent 1100 system. HPLC-DAD (Agilent 1100) was used to detect and quantify the presence of NADP^+, as one of the products of DHFR catalyzed reaction, in cell lysates. Fifty microliter of the cell lysate were incubated at 37°C in a reaction mixture containing 760 μl of buffer (0.05 M Hepes pH 7.3), 20 μl of NADPH 4 mM, and 20 μl of dihydrofolate (H2F) 4 mM. The samples for HPLC analysis were prepared as follows: 50 μl aliquots of each mixture were stopped at different times (0, 5, 10, 20, 30, and 60 min) by adding 25 μl of HClO4 1.2 M; after 10 min on ice and centrifugation for 5 min at 12,000 g, 60 μl of each supernatant were neutralized by adding 17.5 μl of K2CO3 0.79 M, kept on ice and centrifuged again. Fifty microliter of the supernatant obtained were directly injected into the reversed phase column for separations of reagents and products of the enzyme catalyzed reaction. The column used is a Supelcosil LC RP 18 (4.6 × 250 mm) with pre-column SupelGuard. The HPLC settings are the same reported in Wang et al. ([2020]). The amounts of product (NADP^+) were determined from the peak areas of the HPLC-separated compounds with reference to appropriate standards. One enzyme unit is defined as the amount of enzyme which catalyzes the reduction of 1 μmol of dihydrofolate, per minute, at 37°C. Enzyme activities were normalized by the protein content, determined by the Bradford assay (Bradford, [1976]).

[2] = SKBR3, 4 h treatment, control 0.72 ± 0.05
[3] = SKBR3, 12 h treatment, control 0.67 ± 0.10

Substance	IC50 (SKBR3 cells) [µM]	cytotoxic activity in MTT screening (SKBR3 cells)	Specific enzymatic activity of DHFR [1, 2] [mU/mg]	Specific enzymatic activity of DHFR [1, 3] [mU/mg]
4,5-dichloro-imidazolate-1yl-gold(I)-(triphenylphosphane) [Compound 6]	4.55 ± 0.25	most active	0.64 ± 0.06	0.34 ± 0.01
4,5-dicyano-imidazolate-1yl-gold(I)-(triphenylphosphane) [Compound 5]	5.36 ± 0.35	most active	0.54 ± 0.04	0.29 ± 0.05
